What all share (format): cell-based, mouse
Assay [1] deals with α7 integrin (LacZ reporter in α7+/LacZ myotubes). Kind of assay: Myotube α7 integrin FDG assay (Burkin assay in myotubes, 96-well). The note with it: for Burkin Assay in Myotubes, value relative to DMSO: SU9516 analogs, 96-well, N=3-6.
For assay [2], the system named is β-galactosidase in CMV-LacZ C2C12 myoblasts. Kind of assay: CMV-LacZ secondary screen in C2C12 myoblasts (β-Gal stabilizing assay). As to conditions: for CMV-LACZ in Myoblasts (β-galactosidase activity relative to DMSO): CMV-LacZ C2C12 myoblasts; for CMV-LACZ in Myoblasts, value relative to DMSO: SU9516 analogs, C2C12 CMV-LacZ, N=2. In outline:
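CMV-LacZ C2C12 line (clonal, FDG-screened); myoblasts/myotubes dosed 0.5–40 μM (0.5, 1, 5, 10, 20, 40 μM); n=2 per point; β-gal stabilization read-out.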

The subject of assay [3] is β-galactosidase in CMV-LacZ C2C12 myotubes. Kind of assay: CMV-LacZ secondary screen in C2C12 myotubes (β-Gal stabilizing assay). The note with it: for CMV-LACZ in Myotubes, signal relative to DMSO: C2C12 CMV-LacZ myotubes, fold relative to DMSO; for CMV-LACZ in Myotubes, value relative to DMSO: SU9516 analogs, C2C12 CMV-LacZ, N=2. An outline of the steps: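 β-Gal level was the read-out, measured in a clonal C2C12 line expressing LacZ from a CMV promoter. Dose-response curves used six concentrations, 0.5 μM up to 40 μM, with duplicate points.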

In assay [4] the test system is α7 integrin (LacZ reporter in α7βgal+/− myoblasts). Kind of assay: Myoblast α7+/LacZ integrin FDG assay (Burkin assay in myoblasts, 96-well). The note with it: 96-well; for Burkin Assay in Myoblasts, signal relative to DMSO: α7+/LacZ myoblasts; for Burkin Assay in Myoblasts, value relative to DMSO: SU9516 analogs, N=3-6.

The results in this text go back to US9980943B2, “Methods of treating muscular dystrophy” (BOARD OF REGENTS OF THE NEVADA SYSTEM OF HIGHER EDUCATION, …, priority 2013, dated 2018).

As for `Cc1[nH]c2ccc(F)cc2c1CCN(Cc1ccco1)C(=S)NC(C)(C)C` [MLS000419286-01], the “Burkin Assay in Myotubes, α7 integrin LacZ reporter signal relative to DMSO” value in assay [1] (0.5 uM) is on record as 0.9511; in assay [1] (1 uM), 0.8124; in assay [1] (5 uM), 0.879; in assay [1] (10 uM) it was 0.948; in assay [1] (20 uM), 0.457; in assay [1] (40 uM) it was 0.193. For the same compound, the “CMV-LACZ in Myoblasts (β-galactosidase activity relative to DMSO)” value is reported as 0.9960 in assay [2] (0.5 uM); 0.7960 in assay [2] (1 uM); 0.9701 in assay [2] (5 uM); 0.8022 in assay [2] (10 uM); 0.9368 in assay [2] (20 uM); 0.6295 in assay [2] (40 uM). The “CMV-LACZ in Myotubes, signal relative to DMSO” value is 0.9990 in assay [3] (0.5 uM); 1.1867 in assay [3] (1 uM); 1.0268 in assay [3] (5 uM); 1.1581 in assay [3] (10 uM); 0.8530 in assay [3] (20 uM); 0.7830 in assay [3] (40 uM). For the same compound, the “Burkin Assay in Myoblasts, signal relative to DMSO” value came to 1.166 in assay [4] (0.5 uM); 1.002 in assay [4] (1 uM); 0.9174 in assay [4] (5 uM); 0.8951 in assay [4] (10 uM); 0.7945 in assay [4] (20 uM); 0.7199 in assay [4] (40 uM).

As to `CSc1ccc(S(=O)(=O)NCc2ccccc2)cc1` [MLS000531177-01], the “Burkin Assay in Myotubes, α7 integrin LacZ reporter signal relative to DMSO” value in assay [1] (0.5 uM) was found to be 0.8259; in assay [1] (1 uM), 0.7329; in assay [1] (5 uM) it was 1.051; in assay [1] (10 uM), 1.163; in assay [1] (20 uM), 0.8007; in assay [1] (40 uM) it was 0.9005. Besides, the “CMV-LACZ in Myoblasts (β-galactosidase activity relative to DMSO)” value in assay [2] (0.5 uM) is given as 1.0785; in assay [2] (1 uM) it was 1.5065; in assay [2] (5 uM) it was 1.0150; in assay [2] (10 uM) it was 0.8958; in assay [2] (20 uM), 1.2952; in assay [2] (40 uM), 0.9422. The “CMV-LACZ in Myotubes, signal relative to DMSO” value in assay [3] (0.5 uM) amounted to 1.1989; in assay [3] (1 uM), 1.0411; in assay [3] (5 uM), 0.8757; in assay [3] (10 uM), 0.8917; in assay [3] (20 uM) it was 0.9244; in assay [3] (40 uM), 1.1522. For the same compound, the “Burkin Assay in Myoblasts, signal relative to DMSO” value in assay [4] (0.5 uM) was found to be 0.8826; in assay [4] (1 uM), 0.923; in assay [4] (5 uM), 1.067; in assay [4] (10 uM), 1.625; in assay [4] (20 uM), 1.014; in assay [4] (40 uM) it was 0.8008.

Turning to `Cc1ncc(/C=C2\C(=O)Nc3ccccc32)[nH]1` [MLS000834757-01], the “Burkin Assay in Myotubes, value relative to DMSO” value in assay [1] (0.5 uM) turned out to be 1.019; in assay [1] (1 uM), 0.943; in assay [1] (5 uM), 1.03; in assay [1] (10 uM), 0.9537; in assay [1] (20 uM), 0.9989; in assay [1] (40 uM), 0.9464. For the same compound, the “CMV-LACZ in Myoblasts, value relative to DMSO” value amounted to 1.0367 in assay [2] (0.5 uM); 0.9300 in assay [2] (1 uM); 0.9101 in assay [2] (5 uM); 1.0942 in assay [2] (10 uM); 0.8115 in assay [2] (20 uM); 1.1026 in assay [2] (40 uM). Moreover, the “CMV-LACZ in Myotubes, value relative to DMSO” value in assay [3] (0.5 uM) stood at 1.0238; in assay [3] (1 uM) it was 0.8695; in assay [3] (5 uM), 1.0546; in assay [3] (10 uM), 1.1047; in assay [3] (20 uM), 1.0789; in assay [3] (40 uM), 1.3600. For the same compound, the “Burkin Assay in Myoblasts, value relative to DMSO” value stood at 1.0102 in assay [4] (0.5 uM); 1.003 in assay [4] (1 uM); 1.125 in assay [4] (5 uM); 0.9651 in assay [4] (10 uM); 1.117 in assay [4] (20 uM); 1.021 in assay [4] (40 uM).

As for `COc1ccccc1C(=O)OCc1ccc2sc(C)nc2c1` [MLS001006798-01], the “Burkin Assay in Myotubes, α7 integrin LacZ reporter signal relative to DMSO” value was 0.9345 in assay [1] (0.5 uM); 1.042 in assay [1] (1 uM); 1.06 in assay [1] (5 uM); 0.8906 in assay [1] (10 uM); 0.9746 in assay [1] (20 uM); 0.8886 in assay [1] (40 uM). Besides, the “CMV-LACZ in Myoblasts (β-galactosidase activity relative to DMSO)” value was found to be 0.8334 in assay [2] (0.5 uM); 1.0326 in assay [2] (1 uM); 1.1509 in assay [2] (5 uM); 1.0189 in assay [2] (10 uM); 0.9622 in assay [2] (20 uM); 0.8263 in assay [2] (40 uM). For the same compound, the “CMV-LACZ in Myotubes, signal relative to DMSO” value in assay [3] (0.5 uM) was 1.0419; in assay [3] (1 uM), 0.9648; in assay [3] (5 uM), 1.2236; in assay [3] (10 uM), 1.0267; in assay [3] (20 uM) it was 0.9953; in assay [3] (40 uM) it was 1.0976. Also, the “Burkin Assay in Myoblasts, signal relative to DMSO” value in assay [4] (0.5 uM) worked out at 1.191; in assay [4] (1 uM), 0.9282; in assay [4] (5 uM) it was 1.133; in assay [4] (10 uM), 1.008; in assay [4] (20 uM), 1.118; in assay [4] (40 uM) it was 1.016.

In the case of `COC(=O)c1cc(S(=O)(=O)NCC2CCN(Cc3ccc(Cl)cc3)CC2)cn1C` [MLS001095033-01], the “Burkin Assay in Myotubes, α7 integrin LacZ reporter signal relative to DMSO” value in assay [1] (0.5 uM) was found to be 0.9959; in assay [1] (1 uM), 0.9488; in assay [1] (5 uM), 0.944; in assay [1] (10 uM), 0.9298; in assay [1] (20 uM), 0.8938; in assay [1] (40 uM) it was 0.9158. The “CMV-LACZ in Myoblasts (β-galactosidase activity relative to DMSO)” value in assay [2] (0.5 uM) was 0.9488; in assay [2] (1 uM), 0.9179; in assay [2] (5 uM), 0.9043; in assay [2] (10 uM), 1.0269; in assay [2] (20 uM), 0.9359; in assay [2] (40 uM), 0.9811. The “CMV-LACZ in Myotubes, signal relative to DMSO” value is 1.2895 in assay [3] (0.5 uM); 1.0867 in assay [3] (1 uM); 1.0230 in assay [3] (5 uM); 1.0031 in assay [3] (10 uM); 1.0326 in assay [3] (20 uM); 1.0358 in assay [3] (40 uM). For the same compound, the “Burkin Assay in Myoblasts, signal relative to DMSO” value in assay [4] (0.5 uM) is recorded as 1.281; in assay [4] (1 uM), 1.186; in assay [4] (5 uM), 0.9632; in assay [4] (10 uM) it was 0.9614; in assay [4] (20 uM), 1.125; in assay [4] (40 uM), 1.0618.
